In patent publication US9301923B2, “Lipids, lipid compositions, and methods of using them” (NOVARTIS AG, priority 2009, dated 2016):
Like-named read-outs stand apart in the source and are kept apart here.

Key:
Factor VII = Factor VII activity assay, in vivo liver delivery of FVII siRNA LNP; set-up: species or system mouse; settings: dose 3 mg/kg siRNA i.v., ~48 h
Procedure: Female CD-1 mice are received from Charles River Labs and maintained on standard lab chow and water ad libitum. The animals weigh approximately 25 grams at time of dosing. Formulated siRNA is administered as a single dose at various dose levels intravenously via the lateral tail vein calculated on a (mg siRNAs/kg) basis according to individual animal weights (10 ml/kg injection volume).
Formulated siRNAs are made up of double stranded siRNA sequences specific to a target mRNA sequence, and are in the form of lipid nucleotid particles (LNPs) containing cationic lipids, stealth lipids and neutral lipids, as provided in the Examples below. The siRNA construct for use in targeting the liver is specific to Factor VII. […] FVII siRNA duplex sequence
Formulated Factor VII siRNA is administered as a single dose at various dose levels intravenously via the lateral tail vein calculated on a mg siRNAs/kg basis according to individual animal weights (10 ml/kg injection volume). Approximately 48 h after injection, the mice are euthanized by CO2 inhalation followed by exsanguinations through the vena cava. […] In some cases, small pieces (˜50 mg) of liver are collected and snap frozen in liquid nitrogen for follow up mRNA quantitation.
An assay standard curve is prepared using pooled plasma aliquots from the vehicle control animals.

[1] = Particle size and PDI by dynamic light scattering (Malvern Zetasizer); assay type: physicochemical
Procedure: Unless indicated otherwise, all sizes referred to herein are the average sizes (diameters) of the fully formed nanoparticle, as measured by dynamic light scattering on a Malvern Zetasizer. The nanoparticle sample is diluted in phosphate buffered saline (PBS) so that the count rate is approximately 200-400 kcts. The data is presented as a weighted average of the intensity measure.
The acronym PDI stands for polydispersity index. Unless indicated otherwise, all PDIs referred to herein are the PDI of the fully formed nanoparticle, as measured by dynamic light scattering on a Malvern Zetasizer. The nanoparticle sample is diluted in phosphate buffered saline (PBS) so that the count rate is approximately 200-400 kcts.

[2] = pKa of the lipid by TNS fluorescence; assay type: physicochemical
Procedure: Unless explicitly indicated otherwise, all pKas referred to herein are measured in water at standard temperature and pressure. Also, unless otherwise indicated, all references to pKa are references to pKa measured using the following technique.
2 mM solution of lipid in ethanol are prepared by weighing the lipid and then dissolving in ethanol.
This is done with all eight buffers.
Priority: Column priority • Carriage Speed: Normal • Auto read: Off
The normalized fluorescence intensity vs. pH chart is then plotted in the Microsoft Excel software. The eight points are connected with a smooth line.
The pKa determined using this method is precise to about 0.2 pKa units.

[3] = lipid/DSPC/CHOL/AVANTI 880150P 50/28/18/4, N/P 3.43
[4] = lipid/no neutral lipid/CHOL/AVANTI 880150P 50/0/46/4, N/P 3.43
[5] = lipid/DSPC/CHOL/AVANTI 880150P 25/28/18/4, N/P 1.9

SMILES	FVII inhib % (Factor VII; [3])	FVII inhib % (Factor VII; [4])	Final size (nm) [1, 3]	PDI [1, 3]	Final size (nm) [1, 4]	PDI [1, 4]	pKa ([2]; pKa)	other results
CCCCC/C=C\C/C=C\CCCCCCCCOCC(CN1CC2CCCC2C1)OCCOCCO[C@H]1CC[C@@]2(C)C(=CC[C@H]3[C@@H]4CC[C@H]([C@H](C)CCCC(C)C)[C@@]4(C)CC[C@@H]32)C1 (some centres unmarked) [E0022]	49.4%	87.8%	93 nm	0.143	84 nm	0.192	–	–
CCCCC/C=C\C/C=C\CCCCCCCCOCC(CN1CCC(CCOC)CC1)OCCOCCO[C@H]1CC[C@@]2(C)C(=CCC3C2CC[C@@]2(C)C3CC[C@@H]2[C@H](C)CCCC(C)C)C1 (some centres unmarked) [E0033]	–	15.3%	–	–	105 nm	0.05	–	FVII inhib % (Factor VII; [5]): −36.4%; Final size (nm) [1, 5]: 161 nm; PDI [1, 5]: 0.16
CCCCC/C=C\C/C=C\CCCCCCCCOC[C@@H](CN1CCCCC1)OCCOCCO[C@H]1CC[C@@]2(C)C(=CCC3C2CC[C@@]2(C)C3CC[C@@H]2[C@H](C)CCCC(C)C)C1 (some centres unmarked) [E0034]	81.3%	88.1%	99 nm	0.16	99 nm	0.16	–	–
CCCCC/C=C\C/C=C\CCCCCCCCOCC(CN1CCC[C@@H]1COC)OCCOCCO[C@H]1CC[C@@]2(C)C(=CC[C@H]3C4CC[C@H]([C@H](C)CCCC(C)C)[C@@]4(C)CC[C@@H]32)C1 (some centres unmarked) [E0037]	69.3%	66.2%	96 nm	0.24	117 nm	0.1	–	–
CCCCC/C=C\C/C=C\CCCCCCCCOCC(CN1CCC(N2CCOCC2)C1)OCCOCCO[C@H]1CC[C@@]2(C)C(=CC[C@H]3[C@@H]4CC[C@H]([C@H](C)CCCC(C)C)[C@@]4(C)CC[C@@H]32)C1 (some centres unmarked) [E0038]	−2.4%	−6.2%	116 nm	0.25	115 nm	0.08	–	–
CCCCC/C=C\C/C=C\CCCCCCCCOCC(CN1CCCCC1)OCCOCCOC(=O)O[C@H]1CC[C@@]2(C)C(C=CC3C2CC[C@@]2(C)C3CC[C@@H]2[C@H](C)CCCC(C)C)C1 (some centres unmarked) [E0056]	–	–	–	–	–	–	6.33	pKa [2]: 5.84
CCCCC/C=C\C/C=C\CCCCCCCCOCC(CN1CCCCC1)OCCNC(=O)O[C@H]1CC[C@@]2(C)C(=CC[C@H]3[C@@H]4CC[C@H]([C@H](C)CCCC(C)C)[C@@]4(C)CC[C@@H]32)C1 (some centres unmarked) [E0102]	–	–	–	–	–	–	6.31	Final size (nm) ([1]; LNP formulation with PLK1 siRNA, helper, neutral and stealth lipid, molar ratio and N/P as in the table): 94.69 nm
CCCCCCCC/C=C\CCCCCCCCOCC(CN1CCOCC1)OCCOCCOC(=O)CO[C@H]1CC[C@@]2(C)C(=CC[C@H]3[C@@H]4CC[C@H]([C@H](C)CCCC(C)C)[C@@]4(C)CC[C@@H]32)C1 (some centres unmarked) [E0125]	–	–	–	–	–	–	5.53	Final size (nm) ([1]; LNP formulation with PLK1 siRNA, helper, neutral and stealth lipid, molar ratio and N/P as in the table, stealth lipid S004, molar ratio 50/38/10/2, N/P 4): 101.5 nm; Final size (nm) ([1]; LNP formulation with PLK1 siRNA, helper, neutral and stealth lipid, molar ratio and N/P as in the table, stealth lipid S004, molar ratio 50/43/5/2, N/P 4): 92.84 nm; Final size (nm) ([1]; LNP formulation with PLK1 siRNA, helper, neutral and stealth lipid, molar ratio and N/P as in the table, stealth lipid S004, molar ratio 50/48/2, N/P 4): 94.13 nm
CCCCC/C=C\C/C=C\CCCCCCCCOCC(CN1CCC(F)(F)CC1)OCCOCCO[C@H]1CC[C@@]2(C)C(=CCC3C2CC[C@@]2(C)C3CC[C@@H]2[C@H](C)CCCC(C)C)C1 (some centres unmarked) [E0170]	9.3%	14.3%	133 nm	0.095	170 nm	0.05	–	–
